According to publication PMC12203428, “Discovery of Clonixeril as a Sub-Femtomolar Modulator of the Human STING Receptor” (ACS Central Science, 2025):

Columns and labels:
[1] = tested on: hSTING phosphorylation (p-hSTING) in HEK293 cells; assay: HEK293 pSTING Western blot with 2′,3′-cGAMP; assay type: cell-based, human
Protocol: Since phosphorylation of Ser366 of hSTING is a necessary step to initiate recruitment, subsequent docking, and phosphorylation of IRF3, we investigated whether CXL would affect hSTING phosphorylation levels in cellulo. Thus, HEK293 cells were treated with varying concentrations of CXL (1fM-1nM) for one hour prior to 2 μM 2′,3′-cGAMP treatment for 90 min (Figure A) or 2 h (Figure C). An optimized dose of 2 μM 2′,3′-cGAMP was based on a dose–response study done for this experiment. A control group was treated with vehicle for 1 h followed by 2 μM 2′,3′-cGAMP for 1 or 2 h (Figure C) Total protein lysates were collected and analyzed by Western blotting using antibodies against p-hSTING, hSTING, and β-actin.
HEK293 cells were seeded at 700,000 cells per 60 mm plate confluency and treated 36 h later. […] Vehicle control group was treated with Escort IV reagent and DMSO for 1 h prior to 2 μM 2′,3′-cGAMP (InvivoGen) for 1 h and 30 min using Escort IV transfection reagent. DMSO concentration was kept constant across all treatment groups. Total cell lysates were collected and analyzed by Western blotting using antibodies against p-STING, STING, and β-actin. […] Data points were analyzed with a one-way ANOVA test using PRISM9 statistical analysis software (GraphPad). A level of p < 0.05 was considered statistically significant.

[2] = tested on: p-hSTING puncta in HEK293 cells; assay: HEK293 immunofluorescence of p-hSTING; assay type: cell-based, human
Protocol: STING undergoes condensed cis-oligomerization as part of its signal transduction pathway and punctate structure formation of p-hSTING in the perinuclear region is indicative of hSTING oligomerization. We had speculated that CXL might affect hSTING oligomerization. […] HEK293 cells were treated with either 10 aM or 1 pM CXL for 1 h followed by 2 μM 2′,3′-cGAMP for 90 min. Cells treated with vehicle control for 1 h and then 2 μM of 2′,3′-cGAMP for 90 min were used as a positive control. At a 1 pM concentration of CXL, both p-hSTING and punctate structure formation were diminished.
HEK293 cells were seeded into four-chambered slides (5,000 cells/well.) 36 h later, sample 1 was first treated with vehicle control for 1 h and then transfected with 2 μM 2′,3′-cGAMP (InvivoGen) using Escort IV transfection reagent (Sigma Aldrich) for 1 h and 30 min. Samples 2 and 3 were first transfected with 10 aM and 1 pM CXL, respectively, for 1 h, followed by 2 μM 2′,3′-cGAMP for 1 h and 30 min. […] DMSO concentration was kept constant across all treatment groups. Cells were fixed with 4% paraformaldehyde for 15 min and immunostained with p-STING antibody at 4 °C overnight with light agitation. The slides were incubated with Alexa 594 rabbit secondary antibody for 1 h at RT. Subsequently, the slides were stained with Phalloidin conjugated to FITC (488) for 30 min at RT, mounted with solution containing 4′,6′-diamidino-2-phenylindole (DAPI) and imaged on a Fluorescent Microscope.

His-hSTING CTD = biological target: T1, His-hSTING CTD (Homo sapiens, UniProt Q86WV6, H232R); assay: Surface plasmon resonance; assay type: binding; settings: without 2′,3′-cGAMP competition; read-out: KD (SPR)
T1 construct: purchased Invivogen (USA) or Cayman Chemicals (USA)
Protocol: SPR was employed for binding measurements using the His-tagged hSTING^WT CDN domain. A GE Healthcare Biacore T200 was equipped with a Ni-NTA chip. […] The sensorgrams were analyzed using Biacore T200 Software 3.0 and steady state was measured at 4 s before injection stop, exported into Graphpad, and fit versus concentration using a one site specific binding model to calculate the apparent equilibrium dissociation constant (K D). Where appropriate, kinetics were measured using a 1:1 Langmuir binding model with R max set to local to obtain the association rate (K on), dissociation (K off)

[3] = tested on: p-IRF3 in HEK293S cells (hSTING pathway); assay: Phospho-IRF3 Western blot in HEK293S cells with diABZI3; assay type: cell-based, human; settings: 100 fM compound, 100 nM diABZI3, preliminary
Protocol: HEK293T cells transfected with hSTINGWT cells were seeded in a 6-well plate in DMEM
(supplemented with 10% heat-inactivated fetal bovine serum, 1X Corning Penicillin-Streptomycin
solution and 0.01mg/mL Blasticidin). Upon reaching ~80% confluence, cells were pretreated with
varying concentrations of CXL in FBS-free DMEM for 2 hours. This was followed by treatment
with diABZI3 (100nM) for 1 hour. The cells were scraped, harvested by centrifugation at 1000 x g
for 3 mins. The resulting pellet is resuspended in 1X PBS with 1X Halt protease & phosphatase
inhibitor and 1% NP-40. Cell lysis was performed by probe sonication. The cell lysate is further
denatured in 1X SDS loading buffer by boiling for 10 mins and separated by SDS-PAGE (4-20%
gel). The separated proteins were electrically transferred to a PVDF membranes separately,
which was probed with primary (α-pIRF3, α-IRF3 & α-STING) and secondary (goat anti-rabbit IR
dye 680 & goat anti-mouse IR dye 800CW) antibodies. The blots were visualized using a LICOR
Image Analyzer. All the experiments were performed at least in duplicate.

[4] = Hydrolysis of clonixeril to clonixin by HPLC; assay type: physicochemical
Protocol: To determine clonixeril’s hydrolytic stability and evaluate its potential as an oral drug, an aqueous solution was concentrated for analysis at 20 µM. The sample was analyzed by HPLC using an […]
The UV spectra of these peaks were compared by diode array and found to be identical with maximum absorbance at 280nm and 343nm. […]
the minor first peak matched the molecular weight of clonixin (M+H)+ and the second major peak matched the molecular weight of clonixeril (M+H)+. Data was generated by measuring the ratio between the two peaks. Hydrolysis of clonixeril to clonixin was measured by HPLC over seven days using a 20 µM aqueous solution.
96.8% clonixeril (Figure S4B). Most of the hydrolysis occurred within the first two days at an average rate of […], and then slowed down to an average rate of 0.07% per hour by day seven (Figure S4B). The rate decrease correlated with an observable decrease in solution pH as a product of hydrolysis. Further samples solubilized in pH 2.00 phosphoric acid and pH 1.99 hydrochloric acid confirmed that the rate decreases to an average of 0.014% per hour over […]
a seven-day period. […]

hSTING CTD = assay: Differential scanning fluorimetry (thermal shift); assay type: binding, human; settings: 200 μM
Source text: Differential Scanning Fluorimetry – Thermal Shift Experiment
screening process for their potential to stabilize the active form of the STING molecule by binding to it. A TSA measures a protein's melting temperature (Tm), at which the protein is 50% denatured. The assay quantifies protein denaturation by measuring the increase in fluorescence of a dye that binds to hydrophobic residues exposed by unfolding of the protein.
Differential Scanning Fluorimetry (Thermal Shift) for Binders of STING.
Compounds selected (57) from computational virtual screening for analysis at 200 μM in the thermal shift assay are
shown here as green dots with blue diamond indicating the temperature range of denaturation. The red box indicates

SUMO-hSTING CTD = SUMO-hSTING CTD (Homo sapiens, UniProt Q86WV6, H232R); assay: Dynamic light scattering of STING oligomerization
SUMO-hSTING CTD, sequence (Q86WV6 155-343 H232R): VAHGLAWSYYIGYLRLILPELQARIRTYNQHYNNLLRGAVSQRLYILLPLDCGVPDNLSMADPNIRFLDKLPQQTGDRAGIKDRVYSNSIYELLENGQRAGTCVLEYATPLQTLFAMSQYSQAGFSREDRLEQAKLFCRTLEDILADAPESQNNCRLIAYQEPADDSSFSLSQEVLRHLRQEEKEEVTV
Protocol: (B) DLS was performed for 2 h (n = 960 measurements) with 50 nM STING exposed to analytes. […] Blue blocks indicate size counts as a percentage to overall mass over selected mass ranges. […] Measurements were made using a Malvern Zetasizer Nano ZS set to 40 measurements at 1 s/measurement and 24 runs.

T1 sequence (Q86WV6 153-340 H232R): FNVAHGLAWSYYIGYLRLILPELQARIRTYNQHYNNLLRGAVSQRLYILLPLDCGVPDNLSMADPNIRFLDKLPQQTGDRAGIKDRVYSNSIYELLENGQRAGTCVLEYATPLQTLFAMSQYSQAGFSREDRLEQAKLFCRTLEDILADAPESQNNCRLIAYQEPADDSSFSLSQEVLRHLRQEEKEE

SMILES: Cc1c(Cl)cccc1Nc1ncccc1C(=O)OCC(O)CO (stereo not drawn) [CXL, clonixeril]
- Effect on hSTING phosphorylation, CXL prior to 2′,3′-cGAMP ([1]; CXL 1 fM-1 nM 1 h, then 2 μM 2′,3′-cGAMP): downregulated hSTING phosphorylation close to near basal cellular levels
- Effect on hSTING phosphorylation, 2′,3′-cGAMP prior to CXL ([1]; same concentration range): inhibitory activity was not observed
- p-hSTING and punctate structure formation ([2]; 1 pM CXL 1 h, then 2 μM 2′,3′-cGAMP 90 min): diminished
- 2′,3′-cGAMP induced p-hSTING puncta formation in the perinuclear region ([2]; 10 aM CXL): may affect
- Levels of hSTING phosphorylation ([2]; 10 aM CXL): qualitatively unaffected
- Kd (His-hSTING CTD): 430 ± 140 nM
- Effect on p-IRF3 [3]: potent antagonistic behavior
- Initial hydrolysis, clonixeril ([4]; 20 µM aqueous solution): 96.8%
- Initial hydrolysis, clonixin ([4]; 20 µM aqueous solution): 3.2%
- Initial hydrolysis, clonixeril ([4]; 5% sodium bicarbonate): 88.2%
- Initial hydrolysis, clonixin ([4]; 5% sodium bicarbonate): 11.8%
- Average rate of hydrolysis ([4]; aqueous solution, by day seven): 0.07 % per hour
- Average rate of hydrolysis ([4]; aqueous solution, first two days): 0.13 % per hour
- Average rate of hydrolysis ([4]; pH 2.00 phosphoric acid and pH 1.99 hydrochloric acid, seven-day period): 0.014 % per hour
- Hydrolysis ([4]; pH of 1.0): relatively slow hydrolysis
- Hydrolysis ([4]; pH=2.0): surprisingly slow
- Thermal shift (hSTING CTD): negative thermal shift
- Lowest concentration at which effect on oligomerization is observed (SUMO-hSTING CTD; 50 nM STING, 50 nM 2′,3′-cGAMP): 100 aM
- Reduction in 2′,3′-cGAMP driven SUMO-hSTING CTD oligomerization (SUMO-hSTING CTD; 50 nM STING, 50 nM 2′,3′-cGAMP): alters the ability of SUMO-hSTING CTD to oligomerize
- SUMO-hSTING CTD oligomerization without 2′,3′-cGAMP present (SUMO-hSTING CTD; 50 nM STING, analyte alone): moderate amount of oligomerization
- Size of protein aggregates (SUMO-hSTING CTD; 100 aM, 50 nM STING CTD, reviewer's reading): about 75 nm
